Experimental data reported in patent US20080221132A1, “Multi-Functional Small Molecules as Anti-Proliferative Agents” (priority 2006, published 2008).
pIC50: −log10 of the molar value. Read-outs that look alike come from different tables or passages of the source.

Tests used:
[1] = tested on: Colon_HCT116 (HCT116, colon cancer); experiment: Cell proliferation assay (ATPlite), HCT116; format: cell-based; conditions: Homo sapiens, HCT-116; TABLE C; 72 hours, 0.5% fetal bovine serum, ATP content; read-out: IC50 grading, Colon_HCT116
Procedure: (§1) A representative number of compounds were assayed against several different cell lines using the cell proliferation assay:
(§2) Cell Proliferation Assay:
(§3) Cancer cell lines were plated at 5,000 to 10,000 per well in 96-well flatted bottomed plates with various concentration of compounds. […] Growth inhibition was accessed by adenosine triphosphate (ATP) content assay using Perkin Elmer ATPlite kit. ATPlite is an ATP monitoring system based on firefly luciferase. Briefly, 25 μl of mammalian cell lysis solution was added to 50 μl of phenol red-free culture medium per well to lyse the cells and stabilize the ATP. 25 μl of substrate solution was then added to the well and subsequently the luminescence was measured.

Pancreas_CFPAC = experiment: Cell proliferation assay (ATPlite), CFPAC; format: cell-based; conditions: TABLE C; 72 hours, 0.5% fetal bovine serum, ATP content; read-out: IC50 grading, Pancreas_CFPAC
Procedure: as §1, §2
(§4) Cancer cell lines were plated at 5,000 to 10,000 per well in 96-well flatted bottomed plates with various concentration of compounds. The cells were incubated with compounds for 72 hours in the presence of 0.5% of fetal bovine serum. Growth inhibition was accessed by adenosine triphosphate (ATP) content assay using Perkin Elmer ATPlite kit. ATPlite is an ATP monitoring system based on firefly luciferase. Briefly, 25 μl of mammalian cell lysis solution was added to 50 μl of phenol red-free culture medium per well to lyse the cells and stabilize the ATP. 25 μl of substrate solution was then added to the well and subsequently the luminescence was measured.

[2] = male, CD-1, mouse, in vivo, ip, 7 days
Procedure: 7-day-multiple dosing MTD in mice • a. CD-1 mice, male, 24-26 gram • b. Dosing at 0, 50, 100, 200 mg/kg/d ip • c. 6 mice per group • d. Blood and organs will be collected 2 hr after last dosing on Day 7 for hematology
(§5) Stock solution is diluted with 30% CAPTISOL before use.

Lung_H292 = experiment: Cell proliferation assay (ATPlite), H292; format: cell-based; conditions: Homo sapiens, NCI-H292; TABLE C; 72 hours, 0.5% fetal bovine serum, ATP content; read-out: IC50 grading, Lung_H292
Procedure: as §1, §2, §4

Lung_H358 = experiment: Cell proliferation assay (ATPlite), H358; format: cell-based; conditions: Homo sapiens, NCI-H358; TABLE C; 72 hours, 0.5% fetal bovine serum, ATP content; read-out: IC50 grading, Lung_H358
Procedure: as §1, §2, §4

Abl Kinase = Abl Kinase (Homo sapiens, UniProt P00519); experiment: Kinase panel (TABLE F), Abl Kinase; format: biochemical
[3] = both, Sprague Dawley, rat, in vivo, iv, 8 days
Procedure: The experimental methods used for the toxicity study below are described as follows:
2. Single dosing MTD in rats • a. Sprague Dawley, male and female, 240-260 gram • b. Dosing at 0, 25, 50, 100, 200 mg/kg, iv infusion 5 min • c. 6 rats per group (3 male and 3 female)
as §5

Pancreas_PANC1 = experiment: Cell proliferation assay (ATPlite), PANC1; format: cell-based; conditions: Homo sapiens, PANC-1; TABLE C; 72 hours, 0.5% fetal bovine serum, ATP content; read-out: IC50 grading, Pancreas_PANC1
Procedure: as §1, §2, §4

[4] = tested on: Epidermoid_A431 (A431, epidermoid carcinoma); experiment: Cell proliferation assay (ATPlite), A431; format: cell-based; conditions: Homo sapiens, A-431
Procedure: as §1, §2, §3

Pancreas_HPAC = experiment: Cell proliferation assay (ATPlite), HPAC; format: cell-based; conditions: Homo sapiens, TABLE C, 72 hours, 0.5% fetal bovine serum, ATP content, read-out: IC50 grading, Pancreas_HPAC
Procedure: as §1, §2, §4

Pancreas_Capan1 = experiment: Cell proliferation assay (ATPlite), Capan1; format: cell-based; conditions: Homo sapiens, CAPAN-1; TABLE C; 72 hours, 0.5% fetal bovine serum, ATP content; read-out: IC50 grading, Pancreas_Capan1
Procedure: as §1, §2, §4

[5] = tested on: Prostate_22RV1 (22RV1, prostate carcinoma); experiment: Cell proliferation assay (ATPlite), 22RV1; format: cell-based; conditions: Homo sapiens
Procedure: as §1, §2, §3

FLT-3 Kinase = FLT-3 Kinase (Homo sapiens, UniProt P36888); experiment: Kinase panel (TABLE F), FLT-3 Kinase; format: biochemical
Pancreas_MiaPaCa2 = experiment: Cell proliferation assay (ATPlite), MiaPaCa2; format: cell-based; conditions: Homo sapiens, MIA PaCa-2; TABLE C; 72 hours, 0.5% fetal bovine serum, ATP content; read-out: IC50 grading, Pancreas_MiaPaCa2
Procedure: as §1, §2, §4

[6] = tested on: Breast_SkBr3 (SKBr3, breast carcinoma); experiment: Cell proliferation assay (ATPlite), SkBr3; format: cell-based; conditions: Homo sapiens, SK-BR-3
Procedure: as §1, §2, §3

Lck Kinase = Lck Kinase (Homo sapiens, UniProt P06239); experiment: Kinase panel (TABLE F), Lck Kinase; format: biochemical
[7] = tested on: Breast_MCF7 (MCF-7, breast adenocarcinoma); experiment: Cell proliferation assay (ATPlite), MCF7; format: cell-based; conditions: Homo sapiens, TABLE C, 72 hours, 0.5% fetal bovine serum, ATP content, read-out: IC50 grading, Breast_MCF7
Procedure: as §1, §2, §3

FGFR2 Kinase = FGFR2 Kinase (Homo sapiens, UniProt P21802); experiment: Kinase panel (TABLE F), FGFR2 Kinase; format: biochemical
[8] = tested on: Prostate_PC3 (PC-3, prostate adenocarcinoma); experiment: Cell proliferation assay (ATPlite), PC3; format: cell-based
Procedure: as §1, §2, §3

[9] = male, CD-1, mouse, in vivo, iv, 9 day
Procedure: Single dosing MTD in mice • a. CD-1 mice, male, 24-26 gram • b. Dosing at 0, 50, 100, 200, 400 mg/kg, iv infusion 2 min • c. 8 mice per group
as §5

VEGFR2 Kinase = VEGFR2 Kinase (Homo sapiens, UniProt P35968); experiment: Kinase panel (TABLE F), VEGFR2 Kinase; format: biochemical
Ret Kinase = Ret Kinase (Homo sapiens, UniProt P07949); experiment: Kinase panel (TABLE F), Ret Kinase; format: biochemical
Lung_H460 = experiment: Cell proliferation assay (ATPlite), H460; format: cell-based; conditions: Homo sapiens, NCI-H460; TABLE C; 72 hours, 0.5% fetal bovine serum, ATP content; read-out: IC50 grading, Lung_H460
Procedure: as §1, §2, §4

Pancreas_BxPC3 = experiment: Cell proliferation assay (ATPlite), BxPC3; format: cell-based; conditions: Homo sapiens, BXPC-3; TABLE C; 72 hours, 0.5% fetal bovine serum, ATP content; read-out: IC50 grading, Pancreas_BxPC3
Procedure: as §1, §2, §4

Chain of FLT-3 Kinase (P36888 27-993): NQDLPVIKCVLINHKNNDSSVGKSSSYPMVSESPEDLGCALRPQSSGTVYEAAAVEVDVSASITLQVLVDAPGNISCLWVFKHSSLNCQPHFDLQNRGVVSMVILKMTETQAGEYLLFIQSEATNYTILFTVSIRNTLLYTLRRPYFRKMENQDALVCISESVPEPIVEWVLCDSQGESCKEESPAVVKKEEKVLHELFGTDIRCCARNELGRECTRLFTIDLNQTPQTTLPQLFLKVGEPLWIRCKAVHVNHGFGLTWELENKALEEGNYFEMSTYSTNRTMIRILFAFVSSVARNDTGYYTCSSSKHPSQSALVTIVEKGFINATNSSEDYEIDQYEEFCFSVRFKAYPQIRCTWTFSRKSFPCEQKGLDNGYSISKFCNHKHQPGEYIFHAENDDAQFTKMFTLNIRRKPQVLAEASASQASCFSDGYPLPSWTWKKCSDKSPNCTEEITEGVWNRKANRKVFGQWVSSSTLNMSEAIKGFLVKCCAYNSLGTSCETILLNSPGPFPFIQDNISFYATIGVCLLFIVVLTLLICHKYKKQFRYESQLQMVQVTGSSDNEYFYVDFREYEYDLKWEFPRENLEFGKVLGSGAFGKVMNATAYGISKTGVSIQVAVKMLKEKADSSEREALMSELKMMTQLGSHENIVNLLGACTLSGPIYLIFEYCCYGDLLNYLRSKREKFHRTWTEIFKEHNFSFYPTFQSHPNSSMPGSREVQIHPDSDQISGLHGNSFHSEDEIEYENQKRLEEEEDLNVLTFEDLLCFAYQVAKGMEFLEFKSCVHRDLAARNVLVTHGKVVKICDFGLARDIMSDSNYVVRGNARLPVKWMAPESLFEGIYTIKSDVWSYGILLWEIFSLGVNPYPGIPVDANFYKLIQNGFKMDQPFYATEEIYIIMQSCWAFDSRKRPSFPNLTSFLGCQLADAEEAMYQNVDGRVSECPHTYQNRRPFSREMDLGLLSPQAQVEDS
Chain of FGFR2 Kinase (P21802 22-821): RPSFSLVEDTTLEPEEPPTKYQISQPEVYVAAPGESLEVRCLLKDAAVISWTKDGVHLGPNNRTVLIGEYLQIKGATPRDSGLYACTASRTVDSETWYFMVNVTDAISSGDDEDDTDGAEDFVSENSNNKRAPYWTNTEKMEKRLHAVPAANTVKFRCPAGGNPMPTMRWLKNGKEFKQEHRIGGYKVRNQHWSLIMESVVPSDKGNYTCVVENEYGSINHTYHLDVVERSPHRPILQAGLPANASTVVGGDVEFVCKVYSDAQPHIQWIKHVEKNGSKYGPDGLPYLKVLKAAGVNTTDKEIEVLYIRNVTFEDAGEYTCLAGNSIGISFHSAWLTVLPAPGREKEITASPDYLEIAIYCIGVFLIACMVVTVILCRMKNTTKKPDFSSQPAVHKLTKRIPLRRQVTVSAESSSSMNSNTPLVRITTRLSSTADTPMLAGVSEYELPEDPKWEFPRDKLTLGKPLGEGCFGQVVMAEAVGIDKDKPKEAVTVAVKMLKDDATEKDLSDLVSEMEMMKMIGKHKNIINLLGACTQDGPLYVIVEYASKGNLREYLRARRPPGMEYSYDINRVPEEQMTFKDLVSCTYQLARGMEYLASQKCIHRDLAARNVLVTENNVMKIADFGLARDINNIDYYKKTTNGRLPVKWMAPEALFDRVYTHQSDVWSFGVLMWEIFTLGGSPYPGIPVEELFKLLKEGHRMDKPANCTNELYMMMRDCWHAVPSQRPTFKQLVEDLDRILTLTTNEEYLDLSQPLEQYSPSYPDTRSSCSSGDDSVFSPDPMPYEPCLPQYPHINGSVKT
Chain of Ret Kinase (P07949 29-1114): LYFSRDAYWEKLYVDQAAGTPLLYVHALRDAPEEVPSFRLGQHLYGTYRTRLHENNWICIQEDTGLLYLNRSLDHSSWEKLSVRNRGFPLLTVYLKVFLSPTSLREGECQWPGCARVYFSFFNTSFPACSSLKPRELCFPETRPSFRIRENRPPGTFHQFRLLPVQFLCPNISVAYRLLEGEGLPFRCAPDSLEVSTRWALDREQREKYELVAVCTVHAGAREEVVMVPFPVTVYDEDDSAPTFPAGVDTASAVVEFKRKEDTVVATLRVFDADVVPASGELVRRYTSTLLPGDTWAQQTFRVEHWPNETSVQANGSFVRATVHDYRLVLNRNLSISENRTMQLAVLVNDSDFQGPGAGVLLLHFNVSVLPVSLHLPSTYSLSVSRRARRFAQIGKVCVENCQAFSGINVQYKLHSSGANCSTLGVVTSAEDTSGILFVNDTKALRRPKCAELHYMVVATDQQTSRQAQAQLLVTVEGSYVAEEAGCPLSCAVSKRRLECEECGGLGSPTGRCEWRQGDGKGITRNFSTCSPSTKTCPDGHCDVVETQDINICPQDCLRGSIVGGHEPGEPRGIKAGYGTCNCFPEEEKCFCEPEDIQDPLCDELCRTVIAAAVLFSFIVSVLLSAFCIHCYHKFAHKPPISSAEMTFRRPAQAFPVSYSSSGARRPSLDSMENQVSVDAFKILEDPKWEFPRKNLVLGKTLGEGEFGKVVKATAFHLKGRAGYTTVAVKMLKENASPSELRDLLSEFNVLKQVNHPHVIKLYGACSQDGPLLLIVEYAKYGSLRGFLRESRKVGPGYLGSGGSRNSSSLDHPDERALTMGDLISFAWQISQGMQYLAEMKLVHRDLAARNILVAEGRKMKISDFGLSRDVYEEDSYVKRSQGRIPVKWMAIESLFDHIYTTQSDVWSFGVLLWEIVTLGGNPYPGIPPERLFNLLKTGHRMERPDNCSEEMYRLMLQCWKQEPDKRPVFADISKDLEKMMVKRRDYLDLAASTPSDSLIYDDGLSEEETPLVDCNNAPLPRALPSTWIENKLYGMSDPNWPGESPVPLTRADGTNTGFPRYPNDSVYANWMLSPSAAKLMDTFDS
Chain of Abl Kinase (P00519 whole entry): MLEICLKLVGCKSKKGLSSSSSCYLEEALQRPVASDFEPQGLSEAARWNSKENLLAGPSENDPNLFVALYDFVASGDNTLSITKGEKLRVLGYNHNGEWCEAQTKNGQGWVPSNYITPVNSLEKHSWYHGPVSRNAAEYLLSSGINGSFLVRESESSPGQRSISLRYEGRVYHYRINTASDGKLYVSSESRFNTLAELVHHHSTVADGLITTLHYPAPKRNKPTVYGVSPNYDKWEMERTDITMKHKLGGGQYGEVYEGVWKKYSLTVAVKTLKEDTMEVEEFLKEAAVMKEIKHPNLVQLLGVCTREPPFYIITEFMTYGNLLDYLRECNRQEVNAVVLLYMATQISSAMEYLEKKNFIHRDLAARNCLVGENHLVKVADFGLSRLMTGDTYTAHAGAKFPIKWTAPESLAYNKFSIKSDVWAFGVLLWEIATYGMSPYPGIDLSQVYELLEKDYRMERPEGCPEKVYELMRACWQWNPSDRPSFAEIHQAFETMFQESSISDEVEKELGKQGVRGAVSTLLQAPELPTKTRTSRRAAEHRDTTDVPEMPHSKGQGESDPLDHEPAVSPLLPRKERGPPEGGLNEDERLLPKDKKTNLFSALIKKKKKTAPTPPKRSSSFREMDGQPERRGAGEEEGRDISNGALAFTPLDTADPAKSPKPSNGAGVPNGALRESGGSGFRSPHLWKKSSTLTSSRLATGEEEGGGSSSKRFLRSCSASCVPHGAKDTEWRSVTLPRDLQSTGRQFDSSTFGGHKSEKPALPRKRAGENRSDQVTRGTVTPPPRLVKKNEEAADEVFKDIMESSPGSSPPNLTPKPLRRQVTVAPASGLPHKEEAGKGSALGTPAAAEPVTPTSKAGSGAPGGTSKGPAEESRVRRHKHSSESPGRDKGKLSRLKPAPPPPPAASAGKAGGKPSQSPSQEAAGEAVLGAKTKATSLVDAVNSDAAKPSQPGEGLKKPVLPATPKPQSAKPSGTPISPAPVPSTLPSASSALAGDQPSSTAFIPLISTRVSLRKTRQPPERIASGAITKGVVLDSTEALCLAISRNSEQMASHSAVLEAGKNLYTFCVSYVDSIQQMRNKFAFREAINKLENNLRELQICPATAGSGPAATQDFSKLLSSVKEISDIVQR
Chain of Lck Kinase (P06239 whole entry): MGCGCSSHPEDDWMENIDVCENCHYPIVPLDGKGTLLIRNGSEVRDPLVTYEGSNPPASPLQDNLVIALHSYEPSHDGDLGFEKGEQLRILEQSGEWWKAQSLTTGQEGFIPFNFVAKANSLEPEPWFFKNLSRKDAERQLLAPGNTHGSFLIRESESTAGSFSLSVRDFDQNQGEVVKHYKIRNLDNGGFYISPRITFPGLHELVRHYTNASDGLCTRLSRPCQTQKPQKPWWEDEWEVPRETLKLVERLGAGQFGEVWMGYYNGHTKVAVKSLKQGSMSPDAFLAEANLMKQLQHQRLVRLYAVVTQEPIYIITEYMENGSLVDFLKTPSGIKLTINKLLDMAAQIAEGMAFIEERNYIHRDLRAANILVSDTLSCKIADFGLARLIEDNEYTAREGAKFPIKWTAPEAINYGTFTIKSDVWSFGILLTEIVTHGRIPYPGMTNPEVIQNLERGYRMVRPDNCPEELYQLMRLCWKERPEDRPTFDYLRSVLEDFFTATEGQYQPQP

Structure (SMILES): C#Cc1cccc(Nc2ncnc3cc(OC)c(OCCCCCCC(=O)NO)cc23)c1 [Compound 12]
- pIC50 [1]: 6.00 to 7.00
- pIC50 (Pancreas_CFPAC): 6.00 to 7.00
- dose without significant change in body weight [2]: up to 100 mg/kg
- pIC50 (Lung_H292): > 7.00
- pIC50 (Lung_H358): 6.00 to 7.00
- inhibition at 5 µM (Abl Kinase): 57%
- dose without significant change in body weight [3]: up to 200 mg/kg
- pIC50 (Pancreas_PANC1): 6.00 to 7.00
- pIC50 ([4]; TABLE C, 72 hours, 0.5% fetal bovine serum, ATP content, read-out: IC50 grading, Epidermoid_A431): 6.00 to 7.00
- pIC50 ([4]; TABLE D, Epidermoid carcinoma, read-out: IC50 grading, A431): 6.30 to 7.30
- pIC50 (Pancreas_HPAC): 5.00 to 6.00
- pIC50 (Pancreas_Capan1): 6.00 to 7.00
- pIC50 ([5]; TABLE C, 72 hours, 0.5% fetal bovine serum, ATP content, read-out: IC50 grading, Prostate_22RV1): 6.00 to 7.00
- pIC50 ([5]; TABLE D, Prostate carcinoma, read-out: IC50 grading, 22RV1): 6.30 to 7.30
- inhibition at 5 µM (FLT-3 Kinase): 85%
- pIC50 (Pancreas_MiaPaCa2): 6.00 to 7.00
- pIC50 ([6]; TABLE C, 72 hours, 0.5% fetal bovine serum, ATP content, read-out: IC50 grading, Breast_SkBr3): 6.00 to 7.00
- pIC50 ([6]; TABLE D, Breast carcinoma, read-out: IC50 grading, SKBr3): 6.30 to 7.30
- inhibition at 5 µM (Lck Kinase): 56%
- pIC50 [7]: > 7.00
- inhibition at 5 µM (FGFR2 Kinase): 73%
- pIC50 ([8]; TABLE C, 72 hours, 0.5% fetal bovine serum, ATP content, read-out: IC50 grading, Prostate_PC3): 6.00 to 7.00
- pIC50 ([8]; TABLE D, Prostate adenocarcinoma, read-out: IC50 grading, PC-3): 5.30 to 6.30
- dose without significant change in body weight [9]: up to 200 mg/kg
- inhibition at 5 µM (VEGFR2 Kinase): 64%
- inhibition at 5 µM (Ret Kinase): 93%
- pIC50 (Lung_H460): 6.00 to 7.00
- pIC50 (Pancreas_BxPC3): > 7.00
